Data taken from patent US11292796B2 (SIGNAL PHARMACEUTICALS, LLC, priority 2008, dated 2022).

target: T1, mTOR (Homo sapiens, UniProt P42345); assay: mTOR HTR-FRET assay; format: biochemical; details: read-out: Act. Level (IC50 in mTor HTR-FRET assay)
T1 construct: purchased Invitrogen PR8683A
Experimental: The following is an example of an assay that can be used to determine the mTOR inhibitory activity of a test compound. Heteroaryl Compounds were dissolved in DMSO and prepared as 10 mM stocks and diluted appropriately for the experiments. Reagents were prepared as follows:
“Simple TOR buffer” (used to dilute high glycerol TOR fraction): 10 mM Tris pH 7.4, 100 mM NaCl, 0.1% Tween-20, 1 mM DTT. Invitrogen mTOR (cat #PR8683A) was diluted in this buffer to an assay concentration of 0.200 μg/mL.
To 20 μL of the Simple mTor buffer is added 0.5 μL of test compound in DMSO. To initiate the reaction 5 μL of ATP/Substrate solution was added to 20 μL of the Simple TOR buffer solution (control) and to the compound solution prepared above.

T1 sequence (P42345 1360-2549 limits assumed): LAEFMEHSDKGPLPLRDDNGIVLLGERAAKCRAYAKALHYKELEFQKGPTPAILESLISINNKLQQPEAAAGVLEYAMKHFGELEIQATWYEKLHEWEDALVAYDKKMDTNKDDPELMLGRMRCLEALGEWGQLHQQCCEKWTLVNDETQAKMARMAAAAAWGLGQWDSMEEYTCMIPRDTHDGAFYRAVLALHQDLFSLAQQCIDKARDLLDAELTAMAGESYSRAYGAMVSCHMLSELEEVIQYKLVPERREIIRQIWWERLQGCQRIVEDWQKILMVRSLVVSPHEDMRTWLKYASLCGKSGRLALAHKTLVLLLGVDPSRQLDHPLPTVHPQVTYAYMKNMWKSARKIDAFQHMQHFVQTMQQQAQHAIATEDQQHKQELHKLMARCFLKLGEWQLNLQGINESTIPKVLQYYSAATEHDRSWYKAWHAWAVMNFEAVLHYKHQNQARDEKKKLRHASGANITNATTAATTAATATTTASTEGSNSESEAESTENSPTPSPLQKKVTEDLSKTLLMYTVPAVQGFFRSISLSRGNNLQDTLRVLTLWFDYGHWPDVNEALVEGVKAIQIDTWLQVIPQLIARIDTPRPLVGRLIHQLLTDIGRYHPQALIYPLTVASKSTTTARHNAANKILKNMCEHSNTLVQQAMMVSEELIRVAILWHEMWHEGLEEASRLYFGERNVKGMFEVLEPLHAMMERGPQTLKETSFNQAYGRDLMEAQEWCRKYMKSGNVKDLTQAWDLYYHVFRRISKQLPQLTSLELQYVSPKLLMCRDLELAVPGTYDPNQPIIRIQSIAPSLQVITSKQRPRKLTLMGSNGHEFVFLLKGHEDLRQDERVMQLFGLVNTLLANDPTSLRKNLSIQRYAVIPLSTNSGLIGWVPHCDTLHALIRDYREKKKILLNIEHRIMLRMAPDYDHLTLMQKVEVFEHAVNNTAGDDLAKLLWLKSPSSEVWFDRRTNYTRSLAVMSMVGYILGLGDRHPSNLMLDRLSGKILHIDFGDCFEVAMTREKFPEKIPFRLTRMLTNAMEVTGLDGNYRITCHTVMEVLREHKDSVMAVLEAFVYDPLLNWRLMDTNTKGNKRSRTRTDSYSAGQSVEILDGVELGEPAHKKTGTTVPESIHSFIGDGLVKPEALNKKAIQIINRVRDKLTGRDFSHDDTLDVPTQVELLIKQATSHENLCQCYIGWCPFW

Row | Compound | IC50 [nM]
1 | COCCN1CC(=O)Nc2ncc(-c3ccc(-c4nnc[nH]4)cc3)nc21 [Example 144, 6-(4-(4H-1,2,4-triazol-3-yl)phenyl)-4-(2-methoxyethyl)-3,4-dihydropyrazino[2,3-b]pyrazin-2(1H)-one] | 0.005 to 250
2 | Cc1c(-c2cnc3c(n2)N(CCC2CCOCC2)CC(=O)N3)ccc(-c2nnc[nH]2)c1F [Example 48, 6-(3-fluoro-2-methyl-4-(4H-1,2,4-triazol-3-yl)phenyl)-4-(2-(tetrahydro-2H-pyran-4-yl)ethyl)-3,4-dihydropyrazino[2,3-b]pyrazin-2(1H)-one] | 0.005 to 250
3 | Cc1cc(-c2cnc3c(n2)N(CC2CCOCC2)C(=O)CN3)cc2[nH]c(=O)[nH]c12 [Example 238, 7-(7-methyl-2-oxo-2,3-dihydro-1H-benzo[d]imidazol-5-yl)-1-((tetrahydro-2H-pyran-4-yl)methyl)-3,4-dihydropyrazino[2,3-b]pyrazin-2(1H)-one] | 500 to 1000
4 | COCC(=O)N1CCN2c3nc(-c4ccc(-c5nnc[nH]5)cc4C)cnc3NC(=O)C2C1 (stereo not drawn) [Example 96, 9-(4-(4H-1,2,4-triazol-3-yl)-2-methylphenyl)-3-(2-methoxyacetyl)-6,11,4a-trihydropiperazino[1,2-e]pyrazino[2,3-b]pyrazin-5-one] | 0.005 to 250
5 | CO[C@H]1CC[C@@H](CN2C(=O)CNc3ncc(-c4cnc(C(N)=O)cc4C)nc32)CC1 [Example 200, 5-(8-((cis-4-methoxycyclohexyl)methyl)-7-oxo-5,6,7,8-tetrahydropyrazino[2,3-b]pyrazin-2-yl)-4-methylpicolinamide] | 1000 to 10000
6 | O=C1CNc2ncc(-c3cncnc3)nc2N1CCC1CCOCC1 [Example 190, 7-(pyrimidin-5-yl)-1-(2-(tetrahydro-2H-pyran-4-yl)ethyl)-3,4-dihydropyrazino[2,3-b]pyrazin-2(1H)-one] | 1000 to 10000
7 | CCN1CC(=O)Nc2ncc(-c3ccc(-c4nc[nH]n4)nc3)nc21 [Example 22, 6-(6-(1H-1,2,4-triazol-3-yl)pyridin-3-yl)-4-ethyl-3,4-dihydropyrazino[2,3-b]pyrazin-2(1H)-one] | 0.005 to 250
8 | Cc1cc(-c2nnc[nH]2)ccc1-c1cnc2c(n1)NCC(=O)N2 [Example 73, 6-(2-methyl-4-(4H-1,2,4-triazol-3-yl)phenyl)-3,4-dihydropyrazino[2,3-b]pyrazin-2(1H)-one] | 250 to 500
9 | CO[C@H]1CC[C@H](CN2C(=O)CNc3ncc(-c4cc(F)c(-c5nc[nH]n5)cc4C)nc32)CC1 [Example 150, 7-(5-fluoro-2-methyl-4-(1H-1,2,4-triazol-3-yl)phenyl)-1-((trans-4-methoxycyclohexyl)methyl)-3,4-dihydropyrazino[2,3-b]pyrazin-2(1H)-one] | 0.005 to 250
10 | COCCN1CCN2c3nc(-c4ccc(-c5nnc[nH]5)cc4C)cnc3NC(=O)C2C1 (stereo not drawn) [Example 98, 9-(4-(4H-1,2,4-triazol-3-yl)-2-methylphenyl)-3-(2-methoxyethyl)-6,11,4a-trihydropiperazino[1,2-e]pyrazino[2,3-b]pyrazin-5-one] | 250 to 500
11 | O=C1CNc2ncc(-c3ccc(-c4nc[nH]n4)nc3)nc2N1[C@H]1CC[C@H](O)CC1 [Example 170, 7-(6-(1H-1,2,4-triazol-3-yl)pyridin-3-yl)-1-(trans-4-hydroxycyclohexyl)-3,4-dihydropyrazino[2,3-b]pyrazin-2(1H)-one] | 0.005 to 250
12 | COCCN1C(=O)CNc2ncc(-c3ccc(C(C)(C)O)cc3)nc21 [Example 252, 7-(4-(2-hydroxypropan-2-yl)phenyl)-1-(2-methoxyethyl)-3,4-dihydropyrazino[2,3-b]pyrazin-2(1H)-one] | 1000 to 10000
13 | Cc1cc(C(C)(C)O)ncc1-c1cnc2c(n1)N(CC1CCOCC1)CC(=O)N2 [Example 78, 6-(6-(2-hydroxypropan-2-yl)-4-methylpyridin-3-yl)-4-((tetrahydro-2H-pyran-4-yl)methyl)-3,4-dihydropyrazino[2,3-b]pyrazin-2(1H)-one] | 0.005 to 250
14 | CC(C)(O)c1ccc(-c2cnc3c(n2)N([C@H]2CC[C@H](O)CC2)CC(=O)N3)cn1 [Example 101, 4-(trans-4-hydroxycyclohexyl)-6-(6-(2-hydroxypropan-2-yl)pyridin-3-yl)-3,4-dihydropyrazino[2,3-b]pyrazin-2(1H)-one] | 0.005 to 250
15 | NC(=O)c1ccc(-c2cnc3c(n2)N(CCC2CCOCC2)CC(=O)N3)cc1 [Example 70, 4-(6-oxo-8-(2-(tetrahydro-2H-pyran-4-yl)ethyl)-5,6,7,8-tetrahydropyrazino[2,3-b]pyrazin-2-yl)benzamide] | 1000 to 10000
16 | CO[C@H]1CC[C@@H](N2CC(=O)Nc3ncc(-c4ccc(-c5nc[nH]n5)c(F)c4C)nc32)CC1 [Example 28, 6-(3-fluoro-2-methyl-4-(1H-1,2,4-triazol-3-yl)phenyl)-4-(cis-4-methoxycyclohexyl)-3,4-dihydropyrazino[2,3-b]pyrazin-2(1H)-one] | 0.005 to 250
17 | Cc1cc(-c2cnc3c(n2)N(CCC2CCOCC2)CC(=O)N3)cc2[nH]cnc12 [Example 147, 6-(4-methyl-1H-benzo[d]imidazol-6-yl)-4-(2-(tetrahydro-2H-pyran-4-yl)ethyl)-3,4-dihydropyrazino[2,3-b]pyrazin-2(1H)-one] | 500 to 1000
18 | Cc1cc(-c2cnc3c(n2)N(CCC2CCOCC2)C(=O)CN3)cc2[nH]c(N)nc12 [Example 269, 7-(2-amino-4-methyl-1H-benzo[d]imidazol-6-yl)-1-(2-(tetrahydro-2H-pyran-4-yl)ethyl)-3,4-dihydropyrazino[2,3-b]pyrazin-2(1H)-one] | 0.005 to 250
19 | Nc1cc(-c2cnc3c(n2)N(CCC2CCOCC2)C(=O)CN3)ccn1 [Example 183, 7-(2-aminopyridin-4-yl)-1-(2-(tetrahydro-2H-pyran-4-yl)ethyl)-3,4-dihydropyrazino[2,3-b]pyrazin-2(1H)-one] | 500 to 1000
20 | CCN1CC(=O)Nc2ncc(-c3cc(F)c(-c4nc[nH]n4)cc3C)nc21 [Example 26, 4-ethyl-6-(5-fluoro-2-methyl-4-(1H-1,2,4-triazol-3-yl)phenyl)-3,4-dihydropyrazino[2,3-b]pyrazin-2(1H)-one] | 0.005 to 250
21 | Cc1cc(-c2nnc[nH]2)ccc1-c1cnc2c(n1)NC(C)(C)C(=O)N2 [Example 79, 3,3-dimethyl-6-(2-methyl-4-(4H-1,2,4-triazol-3-yl)phenyl)-3,4-dihydropyrazino[2,3-b]pyrazin-2(1H)-one] | 250 to 500
22 | O=C1CNc2ncc(-c3cccc4[nH]ncc34)nc2N1CCC1CCOCC1 [Example 181, 7-(1H-indazol-4-yl)-1-(2-(tetrahydro-2H-pyran-4-yl)ethyl)-3,4-dihydropyrazino[2,3-b]pyrazin-2(1H)-one] | 0.005 to 250
23 | O=C1CN(C[C@H]2CCCO2)c2nc(-c3ccc(-c4nnc[nH]4)cc3)cnc2N1 [Example 67, (R)-6-(4-(4H-1,2,4-triazol-3-yl)phenyl)-4-((tetrahydrofuran-2-yl)methyl)-3,4-dihydropyrazino[2,3-b]pyrazin-2(1H)-one] | 0.005 to 250
24 | O=C1CN(CC2CCOCC2)c2nc(-c3ccc(-c4nnc[nH]4)cc3)cnc2N1 [Example 142, 6-(4-(4H-1,2,4-triazol-3-yl)phenyl)-4-((tetrahydro-2H-pyran-4-yl)methyl)-3,4-dihydropyrazino[2,3-b]pyrazin-2(1H)-one] | 0.005 to 250
